The results in this text go back to patent US20130224126A1, “Oral Care Product and Methods of Use and Manufacture Thereof” (Colgate-Palmolive Company, priority 2010, published 2013).

In this experiment the test system is bacteria/yeast and mold. Description: Antimicrobial Preservation Effectiveness Test (micro robustness), double challenge test. The format is cell-based. The settings on record: in the mouthwash formulations, separately or in combination. Here is the method: The Antimicrobial Preservation Effectiveness Test is used to determine the antimicrobial preservation effectiveness of water-based product formulations by means of a double challenge test. Products are developed to withstand microbial challenges introduced by normal consumer use. The test is run on an aged sample (13 weeks, 40° C.). The test uses two pools of microorganisms: bacteria/yeast and mold. The product is challenged at a 1% level at day 0 and at day 7. Reduction of the inoculum is monitored over a 28 day period. The following are the acceptance criteria for mouth wash formulas. • Bacteria and yeast must show a 99.9% reduction (3 logs) of the bacterial inoculum as determined by plate count on day 7 following each inoculation. No increase after day 7 of the second inoculation and for the remainder of the test within normal variation of the data. • Mold must show a 90.0% reduction (1 log) of the mold inoculum as determined by the plate count on day 14 following the second inoculation (day 21). No increase from day 14 to day 21 of the second inoculation of the test within normal variation of the data.

Regarding `Cn1sccc1=O` [MIT, methylisothiazolinone], the microbial control entry was “acceptable”.

`OCc1ccccc1` [Benzyl alcohol, benzyl alcohol]: the microbial control result is listed as “acceptable”.
